Consider 6 compounds from patent publication US3939150A, “Penicillin derivatives” (priority 1973, dated 1976).

“Also recorded” adds a separate entry of the source. Where only a bound is given, the exact number is not on record here.

For data set [1], the system named is Pseudomonas aeruginosa NC-5 strain. Kind of data set: Protective effect against experimentally infected mice, two oral administrations. Format: in vivo, mice infected with Pseudomonas aeruginosa. As for the experimental part:
c. Mice (one group included five mice) were infected with Pseudomonas aeruginosa NC-5 strain via the intraperitoneal route and the test substance was orally administered twice, i. e., immediately after challenge of the test organism and after 2 hours.

For data set [2] the following is noted: cited from earlier work.
Data set [3] has as its system Pseudomonas aeruginosa 35 strain. The data set can be described thus: MIC distribution, clinical isolated strains. Format: cell-based. The conditions noted are these: of 35 strains. The source says:
(Pseudomonas aeruginosa 35 strain)
(§1) It is clear from the results shown in the above tables, as regards the antibacterial activities against clinical isolated strains, the compounds of this invention show quite high activity against not only Pseudomonas aeruginosa but also against Klebsiella as compared with carbenicillin

The subject of data set [4] is Escherichia coli 31 strain. The data set can be described thus: MIC distribution, clinical isolated strains. Format: cell-based. The conditions noted are these: of 31 strains.
Text: (Escherichia coli 31 strain)
as §1

A further data set has as its system Klebsiella 78 strain. Kind of data set: MIC distribution, clinical isolated strains. Format: cell-based. The settings on record: of 78 strains; for number of strains with MIC 100: MIC 100 μ/ml.
Text: as §1

For data set [5], the system named is Pseudomonas aeruginosa NC-5 strain. The data set can be described thus: Protective effect against experimentally infected mice, one subcutaneous administration. Type of data set: in vivo, mice infected with Pseudomonas aeruginosa. The conditions noted are these: s.c. once. The source says:
a. Mice (one group included five mice) were infected with pseudomonas aeruginosa NC-5 strain the intraperitoneal route and a solution prepared by dissolving the test antibiotics in sterilized distilled water was once administered by subcutaneous injection immediately after challenge of the test organism and then the numbers of living mice were inspected. […] (The figures shown in Tables VII-IX have the same meaning).

Data set [6] shares this test system. The data set can be described thus: Protective effect against experimentally infected mice, three subcutaneous administrations. Format: in vivo, mice infected with Pseudomonas aeruginosa. The settings on record: s.c. The protocol:
b. Mice (one group included five mice) were infected with pseudomonas aeruginosa NC-5 strain via intraperitoneal route and a solution prepared by dissolving the test substance in sterilized distilled water was administered by subcutaneous injection three times, i. e., immediately after challenge of the test organism, after 2 hours, and after 4 hours.

Data set [7] relates to Proteus mirabilis 1287 strain. The data set can be described thus: Protective effect against experimentally infected mice, one subcutaneous administration. Format: in vivo, mice infected with Proteus mirabilis. The conditions noted are these: s.c. once, 2 hours after challenge. As for the experimental part:
d. Mice (one group included five mice) were infected with Proteus mirabilis 1287 strain via the intraperitoneal route and a solution prepared by dissolving the test antiobiotics in sterilized distilled water was once administered by subcutaneous injection 2 hours after of challenge of the test organism.

Another data set relates to male dd-N mice. The data set can be described thus: Acute toxicity (minimum lethal dose). Format: in vivo. The source says: a. The minimum lethal doses (MLD) when the compound of this invention was intravenously and subcutaneously administered to male dd-N mice are shown in Table X.
Data set [8] has as its system male Sprague-Dawley rats. Kind of data set: Nephrotoxicity after 1 week subcutaneous injection. Type of data set: in vivo. The conditions noted are these: 7 days. As for the experimental part:
b. Test antibiotics were administered to male Sprague-Dawley rats by subcutaneous injection daily for 7 days. After seven days, animals were sacrificed and estimated for organ weight and serum urea-nitrogen including visual studies of kidney.

The test system of data set [9] is male Sprague-Dawley rats. The data set can be described thus: Acute nephrotoxicity in combination with glycerol and furocemide in rats. Format: in vivo. The conditions noted are these: for Serum urea nitrogen: with glycerol 4 ml/Kg of 50% and furocemide 50 mg/Kg s.c., 48 hours; for serum urea nitrogen relative to control group (in words): with glycerol and furocemide. The protocol: c. Glycerol (50%, 4 ml/kg), furocemide (50 mg/kg) and test actibiotics were injected subcutaneously in male Sprague-Dawley rats. […] Animals of each group were sacrificed 48 hours later to estimate serum urea-nitrogen values.

A further data set relates to Klebsiella genus. The settings on record: background; cited from earlier work.
A further data set relates to gram negative bacteria. The conditions noted are these: background; cited from earlier work.
Data set [10] relates to male Sprague-Dawley rats. The conditions noted are these: small dose subcutaneously; cited from earlier work.

Consider `CC1(C)S[C@@H]2[C@H](NC(=O)[C@H](N)c3ccc(O)cc3)C(=O)N2[C@H]1C(=O)O` [Amoxicillin, α-amino-p-hydroxybenzylpenicillin], for which the “number of living mice / number of mice inspected” value in data set [1] (25 × 2 mg), in [1] (50 × 2 mg) and in data set [1] (100 × 2 mg) was 0/5 each time. For the same compound, the “concentration in blood by oral administration” value in data set [2] is given as “high concentration in blood by oral administration”.
On to `CC1(C)S[C@@H]2[C@H](NC(=O)C(C(=O)O)c3ccccc3)C(=O)N2[C@H]1C(=O)O` (stereo partly drawn) [Carbenicillin, α-carboxybenzylpenicillin], for which the “number of strains with MIC 1.56” value in data set [3] (MIC 1.56 μ/ml) came out at 0; in [4] (MIC 1.56 μ/ml) it was 1; in the data set with Klebsiella 78 strain (MIC 1.56 μ/ml) it was 1. Also, the “number of strains with MIC […]” value in data set [3] (MIC 3.13 μ/ml) stood at 0; in data set [3] (MIC 6.25 μ/ml), 0; in [4] (MIC 3.13 μ/ml), 7; in data set [4] (MIC 6.25 μ/ml), 8; with Klebsiella 78 strain (MIC 3.13 μ/ml), 1; in the data set with Klebsiella 78 strain (MIC 6.25 μ/ml), 1. The “number of strains with MIC 12.5” value in data set [3] (MIC 12.5 μ/ml) worked out at 0; in [4] (MIC 12.5 μ/ml), 6; in the data set with Klebsiella 78 strain (MIC 12.5 μ/ml), 0. In addition, the “number of strains with MIC 25” value in data set [3] (MIC 25 μ/ml) is listed as 3; in data set [4] (MIC 25 μ/ml), 0; with Klebsiella 78 strain (MIC 25 μ/ml), 0. The “number of strains with MIC 50” value in data set [3] (MIC 50 μ/ml) stood at 4; in [4] (MIC 50 μ/ml), 0; in the data set with Klebsiella 78 strain (MIC 50 μ/ml), 8. Moreover, the “number of strains with MIC 100” value worked out at 8 in [3] (MIC 100 μ/ml), 0 in data set [4] (MIC 100 μ/ml), 8 in the data set with Klebsiella 78 strain (first column headed 100) and 16 in the data set on Klebsiella 78 strain (second column headed 100). Also, the “number of strains with MIC >100” value in data set [3] (MIC >100 μ/ml) came to 20; in data set [4] (MIC >100 μ/ml), 9. Moreover, in the data set with Klebsiella 78 strain (MIC 400 μ/ml), the “number of strains with MIC 400” value is reported as 16. In addition, the “number of strains with MIC >400” value with Klebsiella 78 strain (MIC >400 μ/ml) is 27. For the same compound, the “number of living mice / number of mice inspected” value is given as 1/5 in [5] (15 mg); 2/5 in data set [5] (30 mg); 4/5 in data set [5] (60 mg); 2/5 in [6] (2.5 × 3 mg); 0/5 in [6] (5 × 3 mg); 5/5 in data set [6] (10 × 3 mg). Further, the “number of living mice / number of mice inspected” value in data set [7] (1.25 mg) is listed as 0/5; in data set [7] (2.5 mg), 1/5; in data set [7] (5 mg), 2/5; in data set [7] (10 mg), 4/5. Further, the values for the MLD in the data set with male dd-N mice (i.v.) and in the data set on male dd-N mice (s.c.) were 7000 mg/kg and over 10000 mg/kg, respectively. Also, in the data set with male Sprague-Dawley rats [8] (1000 mg/Kg/day sc), the Kidney weights is listed as 2.53 g. In addition, the “Serum urea-N” value with male Sprague-Dawley rats [8] (1000 mg/Kg/day sc) was found to be 24.0 mg/dL. In addition, in the data set with male Sprague-Dawley rats [8] (1000 mg/Kg/day sc), the renal findings result is listed as “no abnormal findings”. The Serum urea nitrogen with male Sprague-Dawley rats [9] (1000 mg/Kg s.c.) was 29.7 ± 7.2 mg/dL. Besides, the “nephrotoxicity (in words)” value with male Sprague-Dawley rats [9] (rat, in vivo) is listed as “no nephrotoxicity resulted”. The “serum urea nitrogen relative to control group (in words)” value in the data set on male Sprague-Dawley rats [9] is given as “no remarkable difference”. Further, in the data set on Klebsiella genus, the “activity against the Klebsiella genus (in words)” value was “weak antibacterial activity against the Klebsiella genus”.
As to `O=C(Cc1cccs1)N[C@@H]1C(=O)N2C(C(=O)[O-])=C(C[n+]3ccccc3)CS[C@H]12` [Cephaloridine], the Serum urea nitrogen in the data set with male Sprague-Dawley rats [9] (500 mg/Kg s.c.) was 50.7 ± 13.6 mg/dL. Also, the “serum urea nitrogen relative to control group (in words)” value in the data set on male Sprague-Dawley rats [9] is given as “remarkable increase of serum urea nitrogen”.
Regarding `CC1(C)S[C@@H]2[C@H](NC(=O)[C@H](N)C3=CCC=CC3)C(=O)N2[C@H]1C(=O)O` [Epicillin, 6-[D-2-amino-2-(1,4-cyclohexadien-1-yl)acetamido]penicillanic acid], the “activity to gram negative bacteria (in words)” value with gram negative bacteria is “selective antibacterial activity to, in particular, gram negative bacteria”.
As for `NC[C@H]1O[C@H](O[C@H]2[C@H](O)[C@@H](O[C@H]3O[C@H](CO)[C@@H](O)[C@H](N)[C@H]3O)[C@H](N)C[C@@H]2N)[C@H](O)[C@@H](O)[C@@H]1O` [Kanamycin], in the data set on male Sprague-Dawley rats [8] (500 mg/kg/day sc), the Kidney weights is 3.52 g; the “Serum urea-N” value is 70.7 mg/dL; the renal findings entry is “renal hypertropy, ischemia of renal cortex; also recorded: abnormal increase of serum urea-nitrogen values; also recorded: severe renal impairement”.
With `OCC(O)CO` [glycerol], the renal impairment result in the data set on male Sprague-Dawley rats [10] is “mild and reversible renal impairment”.
